Data: ChEMBL document CHEMBL3351890, “Azapropellanes with anti-influenza a virus activity” (ACS Med Chem Lett, 2014)

Assays:
Influenza A virus [1] = assay: Antiviral activity against Influenza A virus A/PR/8/34 (H1N1) infected in MDCK cells assessed as inhibition of virus-induced cytopathic effect; format: functional, organism-based; settings: A/Puerto Rico/8/1934(H1N1)
Influenza A virus [2] = assay: Antiviral activity against Influenza A virus A/PR/8/34 (H1N1) infected in MDCK cells assessed as cell viability by MTS assay; format: functional, organism-based; settings: A/Puerto Rico/8/1934(H1N1)
[3] = Antiviral activity against Influenza A virus A/HK/7/87 (H3N2) infected in MDCK cells assessed as inhibition of virus-induced cytopathic effect; format: functional, cell-based, Influenza A virus (A/Hong Kong/7/1987(H3N2))
[4] = Antiviral activity against Influenza A virus A/HK/7/87 (H3N2) infected in MDCK cells assessed as cell viability by MTS assay; format: functional, cell-based, Influenza A virus (A/Hong Kong/7/1987(H3N2))
[5] = Cytotoxicity against MDCK cells assessed as cell morphology by microscopical examination; format: cell-based, Canis lupus familiaris; settings: dog
[6] = Cytotoxicity against MDCK cells assessed as cell viability after 72 hrs by MTS assay; format: cell-based, Canis lupus familiaris; settings: dog
[7] = biological target: Matrix protein 2 (Influenza A virus) (UniProt P06821); assay: Inhibition of influenza A virus wild type M2 proton channel expressed in Xenopus oocytes at 100 uM for 2 mins by two-electrode voltage clamp analysis; format: cell-based
Sequence of Matrix protein 2 (Influenza A virus) (P06821 whole entry): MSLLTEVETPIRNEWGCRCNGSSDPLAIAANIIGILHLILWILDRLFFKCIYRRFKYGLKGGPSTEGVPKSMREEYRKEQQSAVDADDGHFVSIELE

Structure (SMILES)	EC50 (Influenza A virus [1]) [µM]	EC50 (Influenza A virus [2]) [µM]	EC50 [3] [µM]	EC50 [4] [µM]	MCC [5] [µM]	CC50 at 72 h [6] [µM]	inhibition [7] [%]
C1=CC[C@]23CC=CC[C@@]2(C1)CNC3	38	30	> 100	> 100	> 100	> 100	–
N=C(N)N1CC23CCCC2(CCC3)C1 (stereo not given)	> 100	> 100	> 100	> 100	54	100	–
C=C1CC23CC(=C)CC2(C1)CN(C(=N)N)C3 (stereo not given)	> 100	> 100	> 100	> 100	16	20	–
C1CC[C@]23CCCC[C@@]2(C1)CNC3	5.9	13	> 100	> 100	> 100	> 100	–
C1CC23CCCC2(C1)CNC3 (stereo not given)	> 100	> 100	> 100	> 100	> 100	> 100	47.1
C=C1CC23CNCC2(C1)CC(=C)C3 (stereo not given)	< 0.8	< 0.8	> 100	> 100	> 100	> 100	29.3
N=C(N)N1C[C@@]23CC=CC[C@@]2(CCC3)C1	> 100	> 100	> 100	> 100	> 100	> 100	–
CC1=C(C)C[C@]23CNC[C@@]2(C1)CC(C)=C(C)C3	7	5.6	> 100	> 100	> 100	> 100	–
CC1CC23CC(C)CC2(C1)CN(C(=N)N)C3 (stereo not given)	2	1.6	> 100	> 100	> 100	> 20	8.8
CC1CC23CNCC2(C1)CC(C)C3 (stereo not given)	24	20	> 100	> 100	> 100	> 100	58.7
C1=CC[C@]23CCCC[C@@]2(C1)CNC3	30	14	> 100	> 100	> 100	> 100	19.1
C1=CC[C@]23CCC[C@@]2(C1)CNC3	70	56	> 100	> 100	> 100	> 100	–
C1=CC2C3C4C5C=CC4C24CNCC54C13	16	–	14	–	> 100	> 100	–
C=C1CC23CCCC2(CNC3)C1 (stereo not given)	> 100	> 100	> 100	> 100	> 100	> 100	29.9
C=C1CC23CC=CCC2(CNC3)C1 (stereo not given)	45	43	> 100	> 100	> 100	> 100	14.9
